Read-outs that look alike come from different tables or passages of the source.
System: cancer cells
Assay: MTS assay: inhibition of cell growth (formazan absorbance at 492 nm after 72 hours with test compound)
Type: cell-based
Conditions: inhibition class
Experimental: Cells were maintained at 37° C., 5% CO2 in DMEM media supplemented with 1% fetal bovine serum, penicillin/streptomycin and fungizone (Invitrogen). Cells were seeded into 96-well tissue culture plates at 3000 per well and cultured at 37° C. for 18 hours. Test compounds were dissolved and diluted to 300× in DMSO then diluted 1:40 in DMEM. Cells were incubated with test compounds for 72 hours followed by incubation with tetrazolium compound (3-(4,5-dimethylthiazol-2-yl)-5-(3-carboxymethoxyphenyl)-2-(4-sulfophenyl)-2H-tetrazolium, inner salt; MTS) and the electron coupling reagent, phenazine methosulfate (PMS) for 4 hours. […] The ability of compounds to inhibit cell growth in this assay is correlated with the reduction of dehydrogenase enzyme activity found in metabolically active cells. The measurement of the absorbance of the formazan was assessed using an ENVISION™ (Perkin Elmer) microplate reader at 492 nm. The calculated IC50 value is the concentration of the test compound that causes a 50% decrease in the absorbance. […] A=>79% inhibition, B=>50 to 79% inhibition, C=<50% inhibition.

[1] = Homo sapiens, DLD-1 cells, read-out: DLD-1, MTS 72 hours at 10 uM
[2] = Homo sapiens, KATO III cells, read-out: KATO III, MTS 72 hours at 10 uM
[3] = Homo sapiens, MDA-MB-231 cells, read-out: MDA-MB-231, MTS 72 hours at 10 uM
[4] = Homo sapiens, NCI-H1299 cells, read-out: NCI-H1299, MTS 72 hours at 10 uM
[5] = Homo sapiens, PC-3 cells, read-out: PC-3, MTS 72 hours at 10 uM
[6] = PACA-2 cells, read-out: PACA-2, MTS 72 hours at 10 uM

## c1ccc(CN2CCc3n[nH]c4nc(NCc5ccc(-c6ccccc6)cc5)nc2c34)cc1 [Compound 79, 6-benzyl-N-(biphenyl-4-ylmethyl)-2,6,7,8-tetrahydro-1,2,3,5,6-pentaazaacenaphthylen-4-amine]
[1]
  inhibition at 10 µM: > 79%
[2]
  inhibition at 10 µM: 50 to 79%
[3]
  inhibition at 10 µM: 50 to 79%
[4]
  inhibition at 10 µM: > 79%
[5]
  inhibition at 10 µM: < 50%
[6]
  inhibition at 10 µM: < 50%

## COc1ccc(CN2CCCc3n[nH]c4nc(NCc5ccccc5)nc2c34)cc1 [Compound 247, N-benzyl-6-(4-methoxybenzyl)-6,7,8,9-tetrahydro-2H-1,2,3,5,6-pentaazabenzo[cd]azulen-4-amine]
[1]
  inhibition at 10 µM: < 50%
[2]
  inhibition at 10 µM: < 50%
[3]
  inhibition at 10 µM: < 50%
[4]
  inhibition at 10 µM: < 50%
[5]
  inhibition at 10 µM: < 50%
[6]
  inhibition at 10 µM: < 50%

## CCCCNc1nc2c3c(n[nH]c3n1)CCN2Cc1ccccc1 [Compound 84, 6-benzyl-N-butyl-2,6,7,8-tetrahydro-1,2,3,5,6-pentaazaacenaphthylen-4-amine]
[1]
  inhibition at 10 µM: > 79%
[2]
  inhibition at 10 µM: > 79%
[3]
  inhibition at 10 µM: > 79%
[4]
  inhibition at 10 µM: > 79%
[5]
  inhibition at 10 µM: > 79%
[6]
  inhibition at 10 µM: > 79%

## Clc1cccc(Oc2ccccc2)c1CNc1nc2c3c(n[nH]c3n1)CCN2Cc1ccccc1 [Compound 16, 6-benzyl-N-(2-chloro-6-phenoxybenzyl)-2,6,7,8-tetrahydro-1,2,3,5,6-pentaazaacenaphthylen-4-amine]
[1]
  inhibition at 10 µM: < 50%
[2]
  inhibition at 10 µM: < 50%
[3]
  inhibition at 10 µM: < 50%
[4]
  inhibition at 10 µM: 50 to 79%
[5]
  inhibition at 10 µM: 50 to 79%
[6]
  inhibition at 10 µM: < 50%

## Cc1ccc(C)c(CCNc2nc3c4c(n[nH]c4n2)CCN3Cc2ccccc2)c1 [Compound 86, 6-benzyl-N-[2-(2,5-dimethylphenyl)ethyl]-2,6,7,8-tetrahydro-1,2,3,5,6-pentaazaacenaphthylen-4-amine]
[1]
  inhibition at 10 µM: < 50%
[2]
  inhibition at 10 µM: 50 to 79%
[3]
  inhibition at 10 µM: < 50%
[4]
  inhibition at 10 µM: 50 to 79%
[5]
  inhibition at 10 µM: < 50%
[6]
  inhibition at 10 µM: < 50%

## Cc1ccccc1CNC(=O)C1CN(Cc2ccccc2)c2nc(NCc3ccccc3)nc3[nH]nc1c23 (stereo not drawn) [Compound 233, 6-benzyl-4-(benzylamino)-N-(2-methylbenzyl)-2,6,7,8-tetrahydro-1,2,3,5,6-pentaazaacenaphthylene-8-carboxamide]
[1]
  inhibition at 10 µM: > 79%
[2]
  inhibition at 10 µM: 50 to 79%
[3]
  inhibition at 10 µM: > 79%
[4]
  inhibition at 10 µM: > 79%
[5]
  inhibition at 10 µM: > 79%
[6]
  inhibition at 10 µM: < 50%

## c1ccc(CN2CCc3n[nH]c4nc(NCC5COc6ccccc6O5)nc2c34)cc1 (stereo not drawn) [Compound 59, 6-benzyl-N-(2,3-dihydro-1,4-benzodioxin-2-ylmethyl)-2,6,7,8-tetrahydro-1,2,3,5,6-pentaazaacenaphthylen-4-amine]
[1]
  inhibition at 10 µM: < 50%
[2]
  inhibition at 10 µM: < 50%
[3]
  inhibition at 10 µM: < 50%
[4]
  inhibition at 10 µM: < 50%
[5]
  inhibition at 10 µM: < 50%
[6]
  inhibition at 10 µM: < 50%

## Cc1cccc2c(CCNc3nc4c5c(n[nH]c5n3)CCN4Cc3ccccc3)c[nH]c12 [Compound 73, 6-benzyl-N-[2-(7-methyl-1H-indol-3-yl)ethyl]-2,6,7,8-tetrahydro-1,2,3,5,6-pentaazaacenaphthylen-4-amine]
[1]
  inhibition at 10 µM: > 79%
[2]
  inhibition at 10 µM: > 79%
[3]
  inhibition at 10 µM: 50 to 79%
[4]
  inhibition at 10 µM: > 79%
[5]
  inhibition at 10 µM: < 50%
[6]
  inhibition at 10 µM: 50 to 79%

## COc1ccc(CN2CCc3n[nH]c4nc(Nc5ccccc5)nc2c34)cc1 [Compound 118, 6-(4-methoxybenzyl)-N-phenyl-2,6,7,8-tetrahydro-1,2,3,5,6-pentaazaacenaphthylen-4-amine]
[1]
  inhibition at 10 µM: < 50%
[2]
  inhibition at 10 µM: < 50%
[3]
  inhibition at 10 µM: < 50%
[4]
  inhibition at 10 µM: < 50%
[5]
  inhibition at 10 µM: < 50%
[6]
  inhibition at 10 µM: < 50%

## CN(C(=O)C1CN(Cc2ccccc2)c2nc(NCc3ccccc3)nc3[nH]nc1c23)C1CCCCC1 (stereo not drawn) [Compound 239, 6-benzyl-4-(benzylamino)-N-cyclohexyl-N-methyl-2,6,7,8-tetrahydro-1,2,3,5,6-pentaazaacenaphthylene-8-carboxamide]
[1]
  inhibition at 10 µM: < 50%
[2]
  inhibition at 10 µM: < 50%
[3]
  inhibition at 10 µM: < 50%
[4]
  inhibition at 10 µM: < 50%
[5]
  inhibition at 10 µM: < 50%
[6]
  inhibition at 10 µM: < 50%

## Fc1cccc(CNc2nc3c4c(n[nH]c4n2)CCN3)c1 [Compound 127, N-(3-fluorobenzyl)-2,6,7,8-tetrahydro-1,2,3,5,6-pentaazaacenaphthylen-4-amine]
[1]
  inhibition at 10 µM: > 79%
[2]
  inhibition at 10 µM: > 79%
[3]
  inhibition at 10 µM: > 79%
[4]
  inhibition at 10 µM: 50 to 79%
[5]
  inhibition at 10 µM: > 79%
[6]
  inhibition at 10 µM: > 79%

## c1ccc(CN2CCc3n[nH]c4nc(N5CCN(c6cnccn6)CC5)nc2c34)cc1 [Compound 56, 6-benzyl-4-(4-pyrazin-2-ylpiperazin-1-yl)-2,6,7,8-tetrahydro-1,2,3,5,6-pentaazaacenaphthylene]
[1]
  inhibition at 10 µM: < 50%
[2]
  inhibition at 10 µM: < 50%
[3]
  inhibition at 10 µM: < 50%
[4]
  inhibition at 10 µM: < 50%
[5]
  inhibition at 10 µM: < 50%
[6]
  inhibition at 10 µM: < 50%

## c1ccc(CN2CCc3n[nH]c4nc(NCCc5c[nH]c6ccccc56)nc2c34)cc1 [Compound 26, 6-benzyl-N-[2-(1H-indol-3-yl)ethyl]-2,6,7,8-tetrahydro-1,2,3,5,6-pentaazaacenaphthylen-4-amine]
[1]
  inhibition at 10 µM: < 50%
[2]
  inhibition at 10 µM: < 50%
[3]
  inhibition at 10 µM: < 50%
[4]
  inhibition at 10 µM: < 50%
[5]
  inhibition at 10 µM: < 50%
[6]
  inhibition at 10 µM: < 50%

## COc1ccc(CN2CCc3nn(C)c4nc(SC)nc2c34)cc1 [Compound 130, 6-(4-methoxybenzyl)-2-methyl-4-(methylsulfanyl)-2,6,7,8-tetrahydro-1,2,3,5,6-pentaazaacenaphthylene]
[1]
  inhibition at 10 µM: < 50%
[2]
  inhibition at 10 µM: < 50%
[3]
  inhibition at 10 µM: < 50%
[4]
  inhibition at 10 µM: < 50%
[5]
  inhibition at 10 µM: < 50%
[6]
  inhibition at 10 µM: 50 to 79%

## c1ccc(CN2CCc3n[nH]c4nc(NCCOc5ccccc5)nc2c34)cc1 [Compound 34, 6-benzyl-N-(2-phenoxyethyl)-2,6,7,8-tetrahydro-1,2,3,5,6-pentaazaacenaphthylen-4-amine]
[1]
  inhibition at 10 µM: < 50%
[2]
  inhibition at 10 µM: < 50%
[3]
  inhibition at 10 µM: 50 to 79%
[4]
  inhibition at 10 µM: < 50%
[5]
  inhibition at 10 µM: < 50%
[6]
  inhibition at 10 µM: 50 to 79%

## COC(=O)Cn1nc2c3c(nc(SC)nc31)N(Cc1ccccc1)CC2 [Compound 172, methyl [6-benzyl-4-(methylsulfanyl)-7,8-dihydro-1,2,3,5,6-pentaazaacenaphthylen-2(6H)-yl]acetate]
[1]
  inhibition at 10 µM: 50 to 79%
[2]
  inhibition at 10 µM: < 50%
[3]
  inhibition at 10 µM: < 50%
[4]
  inhibition at 10 µM: < 50%
[5]
  inhibition at 10 µM: > 79%
[6]
  inhibition at 10 µM: > 79%

## COc1ccc(CN2CCCc3n[nH]c4nc(NCc5ccccc5Cl)nc2c34)cc1 [Compound 250, N-(2-chlorobenzyl)-6-(4-methoxybenzyl)-6,7,8,9-tetrahydro-2H-1,2,3,5,6-pentaazabenzo[cd]azulen-4-amine]
[1]
  inhibition at 10 µM: 50 to 79%
[2]
  inhibition at 10 µM: > 79%
[3]
  inhibition at 10 µM: 50 to 79%
[4]
  inhibition at 10 µM: < 50%
[5]
  inhibition at 10 µM: > 79%
[6]
  inhibition at 10 µM: > 79%

## COc1ccc(CNc2nc3c4c(n[nH]c4n2)CCN3Cc2ccccc2)cc1OC [Compound 47, 6-benzyl-N-(3,4-dimethoxybenzyl)-2,6,7,8-tetrahydro-1,2,3,5,6-pentaazaacenaphthylen-4-amine]
[1]
  inhibition at 10 µM: < 50%
[2]
  inhibition at 10 µM: < 50%
[3]
  inhibition at 10 µM: < 50%
[4]
  inhibition at 10 µM: < 50%
[5]
  inhibition at 10 µM: < 50%
[6]
  inhibition at 10 µM: < 50%

## Brc1cccc(CCNc2nc3c4c(n[nH]c4n2)CCN3Cc2ccccc2)c1 [Compound 28, 6-benzyl-N-[2-(3-bromophenyl)ethyl]-2,6,7,8-tetrahydro-1,2,3,5,6-pentaazaacenaphthylen-4-amine]
[1]
  inhibition at 10 µM: < 50%
[2]
  inhibition at 10 µM: > 79%
[3]
  inhibition at 10 µM: > 79%
[4]
  inhibition at 10 µM: > 79%
[5]
  inhibition at 10 µM: > 79%
[6]
  inhibition at 10 µM: < 50%

## COc1cc(CNc2nc3c4c(n[nH]c4n2)CCN3Cc2ccccc2)cc(OC)c1OC [Compound 50, 6-benzyl-N-(3,4,5-trimethoxybenzyl)-2,6,7,8-tetrahydro-1,2,3,5,6-pentaazaacenaphthylen-4-amine]
[1]
  inhibition at 10 µM: < 50%
[2]
  inhibition at 10 µM: < 50%
[3]
  inhibition at 10 µM: < 50%
[4]
  inhibition at 10 µM: < 50%
[5]
  inhibition at 10 µM: < 50%
[6]
  inhibition at 10 µM: < 50%

## c1ccc(CN2CCc3n[nH]c4nc(N5CCN(c6ncccn6)CC5)nc2c34)cc1 [Compound 13, 6-benzyl-4-(4-pyrimidin-2-ylpiperazin-1-yl)-2,6,7,8-tetrahydro-1,2,3,5,6-pentaazaacenaphthylene]
[1]
  inhibition at 10 µM: < 50%
[2]
  inhibition at 10 µM: < 50%
[3]
  inhibition at 10 µM: < 50%
[4]
  inhibition at 10 µM: < 50%
[5]
  inhibition at 10 µM: < 50%
[6]
  inhibition at 10 µM: < 50%

Reference: US8343983B2, “Substituted pyrazolo-pyrimidine compounds” (ArQule, Inc., priority 2009, dated 2013)
